# Key:
# B16F10 cells = assay: B16F10 melanoma Matrigel plug tumor growth in mice fed standard or OLT1177 diet; type: in vivo; details: OLT1177 diet 7.5 g/kg food (approx. 100 mg/kg/day) vs standard diet, 15 days after plug instillation; FIG. 1A
# Method: (§1) C57BL/6J male mice, 6-8 weeks old (The Jackson Laboratory), were fed ad libitum with either a standard diet or a diet containing OLT1177® (dapansutrile) at a dose of 7.5 g per Kg of food for one week before subcutaneous instillation of a mixture of Matrigel and B16F10 cells (2×10^5) on the hind quarter of the mice. The dosage was approximately […] based on feed concentrations of 7.5 g/kg and food consumption of 4 g/day. These diets were continued after tumor implantation. Mice were sacrificed following 15 days from the plug instillation. Tissue and plasma were assessed after 15-day post-inoculation.
# IL-6 = assay: Plasma IL-6 in B16F10 tumor-bearing mice; type: in vivo; details: OLT1177 diet vs standard diet, day 15, FIG. 1B
# Method: (§2) Cytokine measurements. Cytokines in supernatants and cell lysates were measured by specific ELISA according to the manufacturer's instructions (DuoSet, R&D Systems, Minneapolis, MN).
# as §1
# G-CSF = assay: Plasma G-CSF in B16F10 tumor-bearing mice; type: in vivo; details: OLT1177 diet vs standard diet, day 15, FIG. 1C
# Method: as §2, §1
# IL-22 = assay: Intracellular cytokine staining for IL-22 in spleen-derived T cells of tumor-bearing mice; type: in vivo; details: OLT1177 diet vs standard diet, FIG. 1D
# Method: as §1
# IL-17 = assay: Intracellular cytokine staining for IL-17 in spleen-derived T cells of tumor-bearing mice; type: in vivo; details: OLT1177 diet vs standard diet, FIG. 1E
# Method: as §1
# VEGF = assay: Plasma VEGF in tumor-bearing mice (tumor angiogenesis model); type: in vivo; details: 7 days after plug, OLT1177 diet vs standard diet, FIG. 2A
# Method: (§3) Tumor Angiogenesis Model. A mixture of Matrigel and B16F10 (2×10^5) was inoculated s.c. in the interscapular area of mice fed standard or OLT1177® diet. Following 7 days from the implantation, the plugs were removed, fixed in 4% paraformaldehyde, embedded in paraffin and sectioned (4 μm). Following, the sections were de-paraffinized, hydrated and stained with hematoxylin/eosin. Separate sections were subjected to heat-induced antigen retrieval (10 mM Citrate 0.05% Tween 20-pH 6.0) at 95° C. for 15 min. The sections were then placed in a humidified slide chamber, blocked for 1 h in 10% normal donkey serum (Jackson Immunologicals) and immunostained using an antibody for Von Willebrand factor (1:100, Millipore-Sigma, Burlington, MA) overnight at 4° C. for identification of new vessel formation. Anti-rabbit horseradish peroxidase enzyme (HRP) conjugated antibody (1:100, Jackson ImmunoResearch Laboratories, West Grove, PA) were used as secondary antibody for 2 hours at room temperature. […]
# We next determined the ability of dapansutrile on inhibition of angiogenesis, an acquired ability of tumor cells to sustain a blood supply to nourish the growing tumor mass. […] After seven days to allow endothelial cell infiltration, plugs were removed, and plasma VEGF levels were determined.
# [1] = tested on: Von Willebrand Factor stained endothelial cells; assay: Tumor angiogenesis model: Von Willebrand Factor staining of B16F10 Matrigel plugs; type: in vivo, mice; details: 7 days after implantation, OLT1177 diet vs standard diet; FIG. 2B
# Method: as §3, with “temperature. Sections were then incubated for 5-10 min with HRP substrate as directed by the manufacturer's instructions (NovaRED substrate, Vector Laboratories, Burlingame, CA). Nuclei counterstaining were achieved using Mayer's Hematoxylin counterstaining (Thermo Fisher scientific Waltham, MA).” for “temperature.”
# HUVEC = assay: Angiogenesis assay (HUVEC) with melanoma conditioned media from 1205Lu cells; type: cell-based, human; details: MCM from 1205Lu cells treated with OLT1177 vs MCM, 5 hours on Matrigel; FIG. 2C
# Method: Cell culture. 1205Lu human melanoma cells were cultured in RPMI. Each was supplemented with 10% FBS, 100 units/mL penicillin, 0.1 mg/ml streptomycin. Cells were maintained in a humidified 5% CO2 atmosphere at 37 C. Human metastatic melanoma cell line 1205Lu were plated in RPMI at 2.5×10^5 per well in a 24-wells plate and allowed to adhere overnight. The following day, media was replaced with fresh RPMI 10% FBS with or without OLT1177® (dapansutrile). For the induction of cytokine production IL-1α (20 ng/ml) was used. OLT1177® was added 30 minutes prior to stimulation. Supernatants were collected, in both unstimulated and stimulated conditions at 24 hours.
# Angiogenesis assay (HUVEC). HUVEC cells were seeded on media with no growth factors overnight. Cells were plated onto Matrigel (Corning) coated wells at 8×10^4 cells per well in a 24 well plate. Cells were then incubated for 5 hours in the presence of HUVEC complete media (control), MCM or MCM in which 1205Lu cells were treated with OLT1177®. MCM was added without dilution. Media was then removed and matrigel was preserved in PFA4%. Pictures were taking at 40× and branching points were counted using the cross method.
# The effects of dapansutrile on angiogenesis was determined in vitro using human umbilical vein endothelial cells (HUVEC). […]
# B16F10-GFP cells = assay: Metastasis model: i.v. B16F10-GFP cells, GFP+ cell counts in lung and liver; type: in vivo, mice; details: 21 days after i.v. B16F10-GFP, OLT1177 diet vs standard diet
# Method: Metastasis Model. Metastasis formation was determined following tail intravenous (i.v.) injection of B16F10-GFP (1×10^6) cells in mice fed standard or OLT1177® diet. Before injection, the B16F10-GFP+ cells were sorted by flow cytometry and only the top brightest 10% cells were injected. Mice were sacrificed after 21 days from the cell injection and lung and liver were isolated and prepared for histology. Previous isolation, lungs were inflated with a solution containing 0.5% low melting agarose to avoid the tissue from collapsing. The presence of GFP-positive cell in the lung and liver of tumor bearing mice were performed by fluorescent microscopy. Tissue sections were stained with Alexa Fluor conjugated WGA, for membranes detection and DAPI, for nuclear stain. Images were acquired blindly and randomly across the tissue sections to obtain 7-10 images per tissue section. GFP positive cells were counted in each image and the results reported as number of GFP+ cells/field area (full chip field).
# To determine whether dapansutrile reduces tissue invasion and metastasis, B16F10-GFP labeled cells were injected intravenously in mice fed with standard or OLT1177® diets.
# [2] = tested on: PMN-MDSC (CD11b+Ly6G+Ly6Clo); assay: Flow cytometry of PMN-MDSC in tumor-bearing mice; type: in vivo
# From the text: (§4) Flow cytometry analysis was used to assess the effect of NLRP3 inhibition on the activation and expansion of MDSCs, key mediators of tumor-associated immunosuppression. Bone marrow, spleen, and lymph node-derived cells were isolated and analyzed for the two main MDSCs subtypes: polymorphonuclear MDSCs (PMN-MDSC) expressing CD11b^+Ly6G^+Ly6C^lo and monocytic MDSCs (M-MDSC) expressing CD11b^+Ly6G^−Ly6C^hi. […] In the spleen, the level of PMN-MDSCs in tumor-bearing mice was increased compared to non-tumor-bearing mice (FIG. 4B). However, in mice fed the dapansutrile diet, we observed a restoration of the PMN-MDSC population at the level observed in the non-tumor-bearing mice (FIGS. 4A-4B). […] Treatment with dapansutrile prevented the tumor-induced effect on M-MDSCs expansion, normalizing the population to the non-tumor-bearing mice level (FIGS. 4D-4F).
# [3] = tested on: M-MDSC (CD11b+Ly6G−Ly6Chi); assay: Flow cytometry of M-MDSC in tumor-bearing mice; type: in vivo; details: tumor-bearing mice on dapansutrile diet, relative to non-tumor-bearing mice
# From the text: as §4
# [4] = healthy subjects, reference 9; cited from earlier work
# NLRP3 inflammasome = NLRP3 inflammasome (Homo sapiens, UniProt Q96P20); details: reference 9; cited from earlier work
# Sequence of NLRP3 inflammasome (Q96P20 whole entry): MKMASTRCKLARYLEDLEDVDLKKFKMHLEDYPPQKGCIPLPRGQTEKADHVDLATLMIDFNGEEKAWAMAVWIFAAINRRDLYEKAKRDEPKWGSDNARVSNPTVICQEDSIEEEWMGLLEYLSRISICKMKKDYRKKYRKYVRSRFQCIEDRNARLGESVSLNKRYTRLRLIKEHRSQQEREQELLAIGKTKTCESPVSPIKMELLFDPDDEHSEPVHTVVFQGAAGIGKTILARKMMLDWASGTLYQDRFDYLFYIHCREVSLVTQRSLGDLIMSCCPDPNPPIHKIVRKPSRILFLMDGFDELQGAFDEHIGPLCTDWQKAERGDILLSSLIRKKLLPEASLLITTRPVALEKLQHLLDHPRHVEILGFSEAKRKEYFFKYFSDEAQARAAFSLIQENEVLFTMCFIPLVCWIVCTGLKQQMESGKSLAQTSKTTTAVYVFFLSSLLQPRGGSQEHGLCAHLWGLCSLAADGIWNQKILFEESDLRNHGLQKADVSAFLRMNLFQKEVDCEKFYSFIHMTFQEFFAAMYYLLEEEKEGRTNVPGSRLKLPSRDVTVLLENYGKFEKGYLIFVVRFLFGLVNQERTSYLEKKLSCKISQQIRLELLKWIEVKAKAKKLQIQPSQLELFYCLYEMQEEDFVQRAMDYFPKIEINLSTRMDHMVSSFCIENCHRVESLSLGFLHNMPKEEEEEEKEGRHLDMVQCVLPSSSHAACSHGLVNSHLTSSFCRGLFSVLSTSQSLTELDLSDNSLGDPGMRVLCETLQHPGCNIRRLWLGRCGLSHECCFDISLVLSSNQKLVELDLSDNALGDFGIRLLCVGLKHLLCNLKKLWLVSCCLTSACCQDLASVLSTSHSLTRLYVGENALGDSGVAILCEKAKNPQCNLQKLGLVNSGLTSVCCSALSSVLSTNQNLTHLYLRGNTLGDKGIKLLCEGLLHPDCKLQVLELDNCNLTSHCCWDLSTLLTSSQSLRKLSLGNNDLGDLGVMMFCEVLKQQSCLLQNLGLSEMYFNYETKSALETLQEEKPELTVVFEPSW
structure (smiles),measurement,setting,value
"CS(=O)(=O)CCC#N [OLT1177®, 3-methanesulfonyl-propionitrile]",tumor volume,B16F10 cells,reduced
same,plasma levels of IL-6,IL-6,significantly reduced
same,plasma levels of G-CSF,G-CSF,significantly reduced
same,"IL-22 levels (ICCS, spleen-derived T cells)",IL-22,reduced
same,"IL-17 (ICCS, spleen-derived T cells)",IL-17,No changes
same,circulating VEGF levels,VEGF,significantly lower
same,VWF stained endothelial cells in matrigel plugs (new vessel formation),[1],reduced
same,HUVEC orientation (number of branching points / tubular-like structures),HUVEC,significantly reduced
same,reduction of number of GFP+ cells in the lungs,"B16F10-GFP cells; p<0.0001, FIG. 3A",66%
same,change in number of GFP+ cells in the liver,"B16F10-GFP cells; p<0.001, FIG. 3B",−60%
same,PMN-MDSCs in lymph nodes,"[2]; dapansutrile diet vs standard diet, FIG. 4C",reduction
same,PMN-MDSC population in bone marrow,"[2]; tumor-bearing mice on dapansutrile diet, relative to non-tumor-bearing mice, FIG. 4A",restoration
same,PMN-MDSC population in spleen,"[2]; tumor-bearing mice on dapansutrile diet, relative to non-tumor-bearing mice, FIG. 4B",restoration
same,M-MDSC population in bone marrow,[3]; FIG. 4D,normalizing
same,M-MDSC population in spleen,[3]; FIG. 4E,normalizing
same,M-MDSC population in lymph nodes,[3]; FIG. 4F,normalizing
same,safety when orally administered,[4],safe
same,inhibition of the NLRP3 inflammasome,NLRP3 inflammasome,selectively inhibit

# Reference: patent US11857529B2, “Methods for treating melanoma” (Olatec Therageutics, Inc., priority 2018, dated 2024)
